For assay [1], the target named is PI3Kδ (p110δ/p85α) Recombinant Human Protein (Homo sapiens (Human), UniProt O00329). The assay can be described thus: PI3Kδ scintillation proximity assay. Format: biochemical. To be noted: 2 μM ATP, 20 μM PIP2. (In general: Scintillation proximity formats need no separation of bound from free tracer.)
Assay [2] relates to Phosphorylated Ribosomal Protein S6 (RPS6) in THP-1 cells. The assay can be described thus: THP-1 RPS6 ELISA assay. Format: cell-based, human. Particulars: Homo sapiens, THP-1, THP-1 cells, 10 nM MCP-1; read-out: PI3Kγ_THP1_RPS6_ELISA IC50. (In general: In an ELISA, binding on a coated surface is turned into a signal by an enzyme label.)
Assay [3] has as its target PI3Kγ (p110γ) Recombinant Human Protein (Homo sapiens (Human), UniProt P48736). In words: PI3K-γ scintillation proximity assay. It is filed as biochemical. To be noted: 2 μM ATP, 20 μM PIP2.

Structures can show the parent of a compound that is named as a salt.

PI3Kγ (p110γ) Recombinant Human Protein, sequence (P48736 whole entry): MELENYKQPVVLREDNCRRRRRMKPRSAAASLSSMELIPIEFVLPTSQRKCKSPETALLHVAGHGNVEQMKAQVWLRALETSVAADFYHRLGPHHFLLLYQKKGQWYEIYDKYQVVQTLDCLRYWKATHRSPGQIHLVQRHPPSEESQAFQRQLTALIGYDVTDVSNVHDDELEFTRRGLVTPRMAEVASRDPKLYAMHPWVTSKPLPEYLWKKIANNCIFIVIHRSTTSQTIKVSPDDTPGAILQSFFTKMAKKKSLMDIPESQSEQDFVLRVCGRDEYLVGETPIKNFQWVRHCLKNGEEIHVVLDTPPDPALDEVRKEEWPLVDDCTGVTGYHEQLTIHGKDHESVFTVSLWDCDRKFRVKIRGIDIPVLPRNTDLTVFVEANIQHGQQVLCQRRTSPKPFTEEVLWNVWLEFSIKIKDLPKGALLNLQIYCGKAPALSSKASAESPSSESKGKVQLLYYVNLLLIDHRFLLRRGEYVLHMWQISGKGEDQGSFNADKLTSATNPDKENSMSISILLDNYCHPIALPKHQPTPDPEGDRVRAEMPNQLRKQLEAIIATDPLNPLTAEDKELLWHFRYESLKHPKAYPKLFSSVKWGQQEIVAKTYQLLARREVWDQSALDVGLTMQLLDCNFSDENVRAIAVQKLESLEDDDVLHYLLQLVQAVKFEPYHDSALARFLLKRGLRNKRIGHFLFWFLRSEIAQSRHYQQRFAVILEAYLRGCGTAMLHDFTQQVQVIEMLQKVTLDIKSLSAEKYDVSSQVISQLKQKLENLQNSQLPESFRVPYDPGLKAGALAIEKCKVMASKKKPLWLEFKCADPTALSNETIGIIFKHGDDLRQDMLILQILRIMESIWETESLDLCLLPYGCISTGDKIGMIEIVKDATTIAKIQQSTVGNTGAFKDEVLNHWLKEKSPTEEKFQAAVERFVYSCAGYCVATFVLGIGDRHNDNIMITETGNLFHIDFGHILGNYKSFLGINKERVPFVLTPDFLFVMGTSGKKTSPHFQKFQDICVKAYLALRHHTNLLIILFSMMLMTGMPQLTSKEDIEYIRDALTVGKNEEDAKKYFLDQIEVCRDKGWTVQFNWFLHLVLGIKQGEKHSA
PI3Kδ (p110δ/p85α) Recombinant Human Protein, sequence (O00329 whole entry): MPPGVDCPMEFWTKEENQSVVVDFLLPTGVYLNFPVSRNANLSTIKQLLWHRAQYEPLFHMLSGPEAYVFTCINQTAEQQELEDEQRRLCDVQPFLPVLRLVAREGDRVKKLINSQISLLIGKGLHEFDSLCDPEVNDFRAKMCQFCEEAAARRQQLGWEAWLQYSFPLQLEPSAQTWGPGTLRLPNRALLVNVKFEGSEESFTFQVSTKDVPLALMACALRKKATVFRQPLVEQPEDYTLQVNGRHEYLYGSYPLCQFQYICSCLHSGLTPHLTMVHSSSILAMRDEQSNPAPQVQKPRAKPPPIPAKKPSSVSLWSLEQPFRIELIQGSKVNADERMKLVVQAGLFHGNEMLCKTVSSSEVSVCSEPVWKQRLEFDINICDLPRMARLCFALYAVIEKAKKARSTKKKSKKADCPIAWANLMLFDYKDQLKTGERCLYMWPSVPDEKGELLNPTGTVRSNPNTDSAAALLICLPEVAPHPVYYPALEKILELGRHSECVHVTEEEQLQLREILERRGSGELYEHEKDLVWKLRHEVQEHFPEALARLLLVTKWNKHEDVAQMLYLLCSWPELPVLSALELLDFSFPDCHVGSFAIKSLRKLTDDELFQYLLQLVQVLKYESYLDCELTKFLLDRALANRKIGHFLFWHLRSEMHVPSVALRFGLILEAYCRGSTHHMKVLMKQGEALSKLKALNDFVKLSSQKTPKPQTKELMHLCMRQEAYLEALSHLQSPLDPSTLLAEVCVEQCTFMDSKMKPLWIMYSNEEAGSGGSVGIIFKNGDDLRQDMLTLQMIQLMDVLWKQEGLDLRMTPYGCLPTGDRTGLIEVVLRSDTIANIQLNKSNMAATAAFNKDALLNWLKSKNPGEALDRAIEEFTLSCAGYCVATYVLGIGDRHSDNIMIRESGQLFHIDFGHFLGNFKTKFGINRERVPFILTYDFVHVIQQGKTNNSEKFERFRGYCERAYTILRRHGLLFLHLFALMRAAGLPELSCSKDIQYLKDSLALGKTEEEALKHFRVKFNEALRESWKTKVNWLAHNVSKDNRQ
PI3Kδ (p110δ/p85α) Recombinant Human Protein, sequence (P27986 whole entry partner): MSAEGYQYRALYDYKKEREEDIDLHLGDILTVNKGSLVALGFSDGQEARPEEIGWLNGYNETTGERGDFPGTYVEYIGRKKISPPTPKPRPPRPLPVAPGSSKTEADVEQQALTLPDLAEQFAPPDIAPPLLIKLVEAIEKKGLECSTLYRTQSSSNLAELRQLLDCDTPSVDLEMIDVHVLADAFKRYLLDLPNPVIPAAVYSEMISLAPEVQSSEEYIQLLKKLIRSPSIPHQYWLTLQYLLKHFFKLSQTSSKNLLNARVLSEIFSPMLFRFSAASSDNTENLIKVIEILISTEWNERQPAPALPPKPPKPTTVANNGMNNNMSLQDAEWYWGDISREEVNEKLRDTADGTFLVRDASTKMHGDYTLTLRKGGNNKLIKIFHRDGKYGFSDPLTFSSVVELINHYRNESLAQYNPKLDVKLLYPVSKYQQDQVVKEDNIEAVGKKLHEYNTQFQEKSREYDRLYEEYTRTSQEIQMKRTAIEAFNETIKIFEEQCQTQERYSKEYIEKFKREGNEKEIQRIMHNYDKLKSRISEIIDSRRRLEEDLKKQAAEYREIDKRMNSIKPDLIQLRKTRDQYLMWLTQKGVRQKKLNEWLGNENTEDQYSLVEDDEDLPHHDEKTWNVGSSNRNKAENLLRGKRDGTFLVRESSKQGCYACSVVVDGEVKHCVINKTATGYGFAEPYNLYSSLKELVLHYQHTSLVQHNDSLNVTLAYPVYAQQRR

For the compound `CC(NC(=O)c1c(N)nn2cccnc12)c1cc(Cl)c2cncn2c1-c1cc[nH]n1` (racemic) [Example 130, 2-Amino-N-{1-[8-chloro-5-(1H-pyrazol-3-yl)imidazo[1,5-a]pyridin-6-yl]ethyl}pyrazolo[1,5-a]pyrimidine-3-carboxamide trifluoroacetate salt], the IC50 in assay [1] was under 500 nM; in assay [2], under 500 nM; in assay [3], under 100 nM.
Regarding `CC(NC(=O)c1c(N)nn2cccnc12)c1cc(Cl)c2cncn2c1-c1cncc(S(C)(=O)=O)c1` (racemic) [Example 131, 2-Amino-N-(1-{8-chloro-5-[5-(methylsulfonyl)pyridin-3-yl]imidazo[1,5-a]pyridin-6-yl}ethyl)pyrazolo[1,5-a]pyrimidine-3-carboxamide trifluoroacetate salt], the 50% inhibitory concentration (IC50) in assay [1] was under 100 nM; in assay [2] it was under 500 nM; in assay [3], under 100 nM.
Consider `CC(NC(=O)c1c(N)nn2cccnc12)c1cc(Cl)c2cncn2c1-c1ccccn1` (racemic) [Example 133, 2-Amino-N-[1-(8-chloro-5-pyridin-2-ylimidazo[1,5-a]pyridin-6-yl)ethyl]pyrazolo[1,5-a]pyrimidine-3-carboxamide trifluoroacetate salt], for which the figures for the IC50 in assay [1], in assay [2] and in assay [3] were under 500 nM, under 500 nM and under 100 nM, respectively.
As for `CNS(=O)(=O)c1ccc(-c2c(C(C)NC(=O)c3c(N)nn4cccnc34)cc(Cl)c3cncn23)cc1` (racemic) [Example 135, 2-Amino-N-[1-(8-chloro-5-{4-[(methylamino)sulfonyl]phenyl}imidazo[1,5-a]pyridin-6-yl)ethyl]pyrazolo[1,5-a]pyrimidine-3-carboxamide trifluoroacetate salt], the figures for the concentration for half-maximal inhibition (IC50) in assay [1], in assay [2] and in assay [3] were under 500 nM, over 1000 nM and under 100 nM, respectively.
With `CC(NC(=O)c1c(N)nn2cccnc12)c1cc(Cl)c2cncn2c1-c1ccc(S(C)(=O)=O)cc1` (racemic) [Example 136, 2-Amino-N-(1-{8-chloro-5-[4-(methylsulfonyl)phenyl]imidazo[1,5-a]pyridin-6-yl}ethyl)pyrazolo[1,5-a]pyrimidine-3-carboxamide trifluoroacetate salt], the concentration for half-maximal inhibition (IC50) is under 500 nM in assay [1], over 1000 nM in assay [2] and under 100 nM in assay [3].
On to `CC(NC(=O)c1c(N)nn2cccnc12)c1cc(Cl)c2cncn2c1-c1cncc(C#N)c1` (racemic) [Example 137, 2-Amino-N-{1-[8-chloro-5-(5-cyanopyridin-3-yl)imidazo[1,5-a]pyridin-6-yl]ethyl}pyrazolo[1,5-a]pyrimidine-3-carboxamide trifluoroacetate salt], for which the half-inhibitory concentration (IC50) was under 100 nM in assay [1], under 500 nM in assay [2] and under 100 nM in assay [3].
Regarding `CC(NC(=O)c1c(N)nn2cccnc12)c1cc(Cl)c2cncn2c1-c1cnccn1` (racemic) [Example 138, 2-Amino-N-[1-(8-chloro-5-pyrazin-2-ylimidazo[1,5-a]pyridin-6-yl)ethyl]pyrazolo[1,5-a]pyrimidine-3-carboxamide trifluoroacetate salt], the figures for the 50% inhibitory concentration (IC50) in assay [1], in assay [2] and in assay [3] were under 500 nM, under 1000 nM and under 100 nM, respectively.
With `CC(NC(=O)c1c(N)nn2cccnc12)c1cc(Cl)c2cncn2c1-c1cn[nH]c1` (racemic) [Example 139, 2-Amino-N-{1-[8-chloro-5-(1H-pyrazol-4-yl)imidazo[1,5-a]pyridin-6-yl]ethyl}pyrazolo[1,5-a]pyrimidine-3-carboxamide trifluoroacetate salt], the half-inhibitory concentration (IC50) is under 100 nM in assay [1], under 500 nM in assay [2] and under 100 nM in assay [3].
For the compound `CC(NC(=O)c1c(N)nn2cccnc12)c1cc(Cl)c2cncn2c1-c1cnn(C)c1` (racemic) [Example 140, 2-Amino-N-{1-[8-chloro-5-(1-methyl-1H-pyrazol-4-yl)imidazo[1,5-a]pyridin-6-yl]ethyl}pyrazolo[1,5-a]pyrimidine-3-carboxamide trifluoroacetate salt], the results for the IC50 in assay [1], in assay [2] and in assay [3] were under 100 nM, under 500 nM and under 100 nM, respectively.
As to `CC(NC(=O)c1c(N)nn2cccnc12)c1cc(Cl)c2cncn2c1N1CCN(S(C)(=O)=O)CC1` (racemic) [Example 141, 2-Amino-N-(1-{8-chloro-5-[4-(methylsulfonyl)piperazin-1-yl]imidazo[1,5-a]pyridin-6-yl}ethyl)pyrazolo[1,5-a]pyrimidine-3-carboxamide trifluoroacetate salt], the IC50 in assay [1] was under 500 nM; in assay [2], under 500 nM; in assay [3], under 100 nM.
Regarding `CC(NC(=O)c1c(N)nn2cccnc12)c1cc(Cl)c2cncn2c1N1CCCC1` (racemic) [Example 142, 2-Amino-N-[1-(8-chloro-5-pyrrolidin-1-ylimidazo[1,5-a]pyridin-6-yl)ethyl]pyrazolo[1,5-a]pyrimidine-3-carboxamide trifluoroacetate salt], the concentration for half-maximal inhibition (IC50) was under 100 nM in assay [1], under 500 nM in assay [2] and under 100 nM in assay [3].
Take `COC1CCN(c2c(C(C)NC(=O)c3c(N)nn4cccnc34)cc(Cl)c3cncn23)CC1` (racemic) [Example 143, 2-Amino-N-{1-[8-chloro-5-(4-methoxypiperidin-1-yl)imidazo[1,5-a]pyridin-6-yl]ethyl}pyrazolo[1,5-a]pyrimidine-3-carboxamide]: the 50% inhibitory concentration (IC50) in assay [1] was under 500 nM; in assay [2] it was under 1000 nM; in assay [3] it was under 100 nM.
In the same order, the values of `CC(NC(=O)c1c(N)nn2cccnc12)c1cc(Cl)c2cncn2c1N1CCOCC1` (racemic) [Example 145, 2-Amino-N-[1-(8-chloro-5-morpholin-4-ylimidazo[1,5-a]pyridin-6-yl)ethyl]pyrazolo[1,5-a]pyrimidine-3-carboxamide trifluoroacetate salt] are under 100 nM, over 1000 nM and under 100 nM.
Regarding `CC(NC(=O)c1c(N)nn2cccnc12)c1cc(Cl)c2cncn2c1N1CCC(O)CC1` (racemic) [Example 146, 2-Amino-N-{1-[8-chloro-5-(4-hydroxypiperidin-1-yl)imidazo[1,5-a]pyridin-6-yl]ethyl}pyrazolo[1,5-a]pyrimidine-3-carboxamide trifluoroacetate salt], the IC50 in assay [1] is under 100 nM; in assay [2], under 500 nM; in assay [3] it was under 100 nM.
Turning to `CC(NC(=O)c1c(N)nn2cccnc12)c1cc(Cl)c2cncn2c1N1CCC(Br)CC1` (racemic) [Example 147, 2-Amino-N-{1-[5-(4-bromopiperidin-1-yl)-8-chloroimidazo[1,5-a]pyridin-6-yl]ethyl}pyrazolo[1,5-a]pyrimidine-3-carboxamide trifluoroacetate salt], the IC50 is under 500 nM in assay [1], under 500 nM in assay [2] and under 100 nM in assay [3].
`CC(NC(=O)c1c(N)nn2cccnc12)c1cc(Cl)c2cncn2c1N1CCNS(=O)(=O)CC1` (racemic) [Example 149, 2-Amino-N-{1-[8-chloro-5-(1,1-dioxido-1,2,5-thiadiazepan-5-yl)imidazo[1,5-a]pyridin-6-yl]ethyl}pyrazolo[1,5-a]pyrimidine-3-carboxamide]: the IC50 is under 100 nM in assay [1], under 500 nM in assay [2] and under 100 nM in assay [3].

The term IC50 denotes the concentration that gives 50% inhibition.

For the origin of these results see patent US10065963B2 (Incyte Corporation, priority 2015, dated 2018).
